The source made the active and inactive calls. No cut-off for these calls is given here.
Key:
[1] = test system: SGC-7901; test: Cell cycle arrest in human SGC7901 cells assessed as accumulation at G1 phase after 48 hrs by propidium iodide staining based flow cytometric analysis; type: functional
[2] = test system: SGC-7901; test: Cell cycle arrest in human SGC7901 cells assessed as accumulation at G1 phase at 600 nM after 48 hrs by propidium iodide staining based flow cytometric analysis (reference value: 47.93%); type: functional
[3] = test system: SGC-7901; test: Cell cycle arrest in human SGC7901 cells assessed as accumulation at G1 phase at 800 nM after 48 hrs by propidium iodide staining based flow cytometric analysis (reference value: 47.93%); type: functional
[4] = test system: SGC-7901; test: Cell cycle arrest in human SGC7901 cells assessed as accumulation at G2 phase at 800 nM after 48 hrs by propidium iodide staining based flow cytometric analysis (reference value: 18.77%); type: functional
[5] = test system: SGC-7901; test: Cell cycle arrest in human SGC7901 cells assessed as accumulation at G1 phase at 1000 nM after 48 hrs by propidium iodide staining based flow cytometric analysis (reference value: 47.93%); type: functional
[6] = test system: SGC-7901; test: Cell cycle arrest in human SGC7901 cells assessed as accumulation at G1 phase at 1200 nM after 48 hrs by propidium iodide staining based flow cytometric analysis (reference value: 47.93%); type: functional
[7] = test system: SGC-7901; test: Cell cycle arrest in human SGC7901 cells assessed as accumulation at G2 phase at 1200 nM after 48 hrs by propidium iodide staining based flow cytometric analysis (reference value: 18.77%); type: functional
[8] = test system: SGC-7901; test: Cell cycle arrest in human SGC7901 cells assessed as accumulation at S phase at 1200 nM after 48 hrs by propidium iodide staining based flow cytometric analysis (reference value: 33.30%); type: functional
[9] = target: T1, Thioredoxin reductase 1, cytoplasmic (Homo sapiens) (UniProt Q16881); test: (§1) Inhibition of TrxR in human SGC7901 cells; type: cell-based
T1 sequence (whole entry): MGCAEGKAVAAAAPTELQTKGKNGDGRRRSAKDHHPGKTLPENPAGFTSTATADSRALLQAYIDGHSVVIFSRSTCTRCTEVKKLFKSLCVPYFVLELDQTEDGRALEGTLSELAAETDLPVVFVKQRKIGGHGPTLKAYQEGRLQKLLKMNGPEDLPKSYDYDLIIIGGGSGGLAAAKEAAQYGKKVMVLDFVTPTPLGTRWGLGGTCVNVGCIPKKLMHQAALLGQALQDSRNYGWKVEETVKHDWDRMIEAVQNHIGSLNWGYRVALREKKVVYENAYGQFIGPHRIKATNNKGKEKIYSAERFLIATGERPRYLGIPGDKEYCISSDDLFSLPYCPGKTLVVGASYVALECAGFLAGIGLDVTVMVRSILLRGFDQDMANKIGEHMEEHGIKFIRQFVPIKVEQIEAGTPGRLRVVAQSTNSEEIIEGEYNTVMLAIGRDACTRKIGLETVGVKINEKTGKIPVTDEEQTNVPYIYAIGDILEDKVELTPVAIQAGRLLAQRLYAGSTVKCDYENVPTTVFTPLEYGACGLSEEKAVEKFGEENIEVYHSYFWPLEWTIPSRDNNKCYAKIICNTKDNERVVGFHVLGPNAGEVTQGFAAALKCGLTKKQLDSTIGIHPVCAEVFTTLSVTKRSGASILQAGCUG

[10] = target: T2, Thioredoxin reductase 1, cytoplasmic (Homo sapiens, UniProt Q16881); test: as §1; type: cell-based
T2 sequence (Q16881 whole entry): T1 sequence (whole entry)

[11] = test system: SGC-7901; test: Induction of mitochondrial membrane depolarization in human SGC7901 cells assessed as cells with mitochondrial membrane potential loss at 800 nM after 48 hrs by JC-1 staining based flow cytometric analysis (reference value: 9.29%); type: functional
[12] = test system: SGC-7901; test: Induction of mitochondrial membrane depolarization in human SGC7901 cells assessed as cells with intact mitochondrial membrane potential at 800 nM after 48 hrs by JC-1 staining based flow cytometric analysis (reference value: 87.3%); type: functional
[13] = test system: SGC-7901; test: Induction of mitochondrial membrane depolarization in human SGC7901 cells assessed as cells with mitochondrial membrane potential loss at 1000 nM after 48 hrs by JC-1 staining based flow cytometric analysis (reference value: 9.29%); type: functional
[14] = test system: SGC-7901; test: Induction of mitochondrial membrane depolarization in human SGC7901 cells assessed as cells with intact mitochondrial membrane potential at 1000 nM after 48 hrs by JC-1 staining based flow cytometric analysis (reference value: 87.3%); type: functional
[15] = test system: SGC-7901; test: Induction of mitochondrial membrane depolarization in human SGC7901 cells assessed as cells with mitochondrial membrane potential loss at 1200 nM after 48 hrs by JC-1 staining based flow cytometric analysis (reference value: 1.65 to 9.29%); type: functional
[16] = test system: SGC-7901; test: Induction of mitochondrial membrane depolarization in human SGC7901 cells assessed as cells with intact mitochondrial membrane potential at 1200 nM after 48 hrs by JC-1 staining based flow cytometric analysis (reference value: 87.3 to 98%); type: functional
[17] = test system: SGC-7901; test: Induction of mitochondrial membrane potential loss in human SGC7901 cells after 48 hrs by JC-1 staining based flow cytometric analysis; type: functional, cell-based
[18] = test system: SGC-7901; test: Induction of apoptosis in human SGC7901 cells after 48 hrs by Annexin V-FITC/propidium iodide staining based flow cytometric analysis; type: functional, cell-based
[19] = test system: SGC-7901; test: Induction of apoptosis in human SGC7901 cells assessed as necrotic cells at 600 nM after 48 hrs by Annexin V-FITC/propidium iodide staining based flow cytometric analysis (reference value: 0.052%); type: functional
[20] = test system: SGC-7901; test: Induction of apoptosis in human SGC7901 cells assessed as viable cells at 1000 nM after 48 hrs by Annexin V-FITC/propidium iodide staining based flow cytometric analysis (reference value: 95.9 to 96%); type: functional; settings: SGC-7901, 48 h, read-out: Activity
[21] = test system: SGC-7901; test: Induction of apoptosis in human SGC7901 cells assessed as necrotic cells at 1200 nM after 48 hrs by Annexin V-FITC/propidium iodide staining based flow cytometric analysis (reference value: 0.052 to 0.304%); type: functional
[22] = test system: SGC-7901; test: Induction of apoptosis in human SGC7901 cells assessed as viable cells at 1200 nM after 48 hrs by Annexin V-FITC/propidium iodide staining based flow cytometric analysis (reference value: 95.9 to 96%); type: functional; settings: SGC-7901, 48 h, read-out: Activity
[23] = test system: SGC-7901; test: Induction of apoptosis in human SGC7901 cells assessed as late apoptotic cells at 1200 nM after 48 hrs in presence of NAC by Annexin V-FITC/propidium iodide staining based flow cytometric analysis (reference value: 2.85%); type: functional
[24] = target: T3, Thioredoxin reductase (Homo sapiens) (UniProt Q16881+Q9NNW7+Q86VQ6); test: Inhibition of TrxR in human SGC7901 cells assessed as p38 phosphorylation at 600 to 1200 nM after 48 hrs by Western blot analysis; type: cell-based
[25] = test system: SGC-7901; test: Induction of apoptosis in human SGC7901 cells assessed as decrease in cyclin D1 level after 48 hrs by Western blot analysis; type: functional, cell-based
[26] = target: T3, Thioredoxin reductase (Homo sapiens); test: Inhibition of TrxR in human SGC7901 cells assessed as JNK phosphorylation at 1200 nM after 48 hrs in presence of NAC by Western blot analysis; type: cell-based
[27] = target: T3, Thioredoxin reductase (Homo sapiens); test: Inhibition of TrxR in human SGC7901 cells assessed as p38 phosphorylation at 1200 nM after 48 hrs in presence of NAC by Western blot analysis; type: cell-based

## COc1cc(OC)c2c(=O)c(OCCCOc3ccccc3/C=C/C(=O)/C=C/c3ccccn3)c(-c3cc(OC)c(OC)c(OC)c3)oc2c1
[1]
  Activity: Dose-dependent effect
[2]
  Activity: 48.92%
[3]
  Activity: 51.29%
[4]
  Activity: 13.48%
[5]
  Activity: 55.28%
[6]
  Activity: 45.78%
[7]
  Activity: 17.95%
[8]
  Activity: 36.26%
[9]
  inhibition: Dose-dependent effect
[10]
  IC50: 783 nM
[11]
  Activity: 21.2%
[12]
  Activity: 75.7%
[13]
  Activity: 39.9%
[14]
  Activity: 56.3%
[15]
  Activity: 55.4 - 63.7%
[16]
  Activity: 35.4 - 40.2%
[17]
  Activity: Dose-dependent effect
[18]
  Activity: Dose-dependent effect
[19]
  Activity: 0.132%
[20]
  viability at 1 µM: 50.1 to 59.6%
[21]
  Activity: 0.131 - 1.62%
[22]
  viability at 1.2 µM: 24.6 to 43.7%
[23]
  Activity: 21.2%
[24]
  inhibition: Active
[25]
  Activity: Dose-dependent effect
[26]
  inhibition: inactive
[27]
  inhibition: inactive
